Source: US5294603A, “Pharmaceutical compositions containing didemnins” (The Board of Trustees of The University of Illinois, priority 1992, dated 1994)
≈ marks a conversion by molar mass, not a printed value. Read-outs that look alike come from different tables or passages of the source. Numbered stars: 1 amine (or outer) side, 2 acyl side, 3 side chain; on linkers, the order of the positions; unused ones are H or OH. Bridge positions count the residues as written; N and C are the ends. Square brackets hold non-standard residues; d marks the D form. Peptide text beside a SMILES is read from it. * marks the point of attachment. X1 = CC[C@H](C)[C@@H](N[*:1])[C@@H](O)CC(=O)O[C@H](C(=O)[C@H](C)C(=O)[*:2])C(C)C; X9 = CCC(C)C(N[*:1])C(O)CC(=O)OC(C(=O)C(C)C(=O)[*:2])C(C)C; NMeY = CN[CH](Cc1ccc(O)cc1)C(=O)O; NMeCha = CN[C@@H](CC1CCCCC1)C(=O)O; Stearoyl = CCCCCCCCCCCCCCCCCC(=O)*; X8 = CC(C(=O)*)N1C(=O)c2ccccc2C1=O; dNMeL = CN[C@H](CC(C)C)C(=O)O; pGlu = O=C1CC[C@@H](C(=O)O)N1; Lauroyl = CCCCCCCCCCCC(=O)*; NMeL = CN[CH](CC(C)C)C(=O)O; X5 = O=C(Cc1ccccc1)C(=O)*; Octanoyl = CCCCCCCC(=O)*; Pyruvoyl = CC(=O)C(=O)*; Hexanoyl = CCCCCC(=O)*; Pentanoyl = CCCCC(=O)*; Lac = C[C@H](O)C(=O)O; Sar = CNCC(=O)O

Key:
[1] = system: Visna virus (VIV); type: cell-based; set-up: key to % Protection / VIV Protection: I, indeterminate
[2] = system: L1210 murine leukemia cells; settings: Table 9
[3] = system: L1210; settings: for cytotoxicity (result in words): Table 1 footnote and text
[4] = system: L1210 cells
[5] = system: L1210; assay: L1210 cytotoxicity, inhibition at fixed doses (Table 10); type: cell-based, murine
[6] = system: Nb2 cells, rat T-cell node lymphoma; assay: Competitive binding with [3H]didemnin B to Nb2 cells; settings: 3 h at 37° C.
Protocol: The immunosuppressive assay was performed by measuring competitive binding of tested compounds with [^3 H]didemnin B to Nb2 cells, rat T-cell node lymphoma. See, Russell, D. H., et al., J. Immunology, 1987, 138, 276-284.
^a Competing didemnins incubated with approximately 25 ng of [^3

[7] = dose 25 ng/mL, tested 4/18/1991
[8] = dose 250 ng/mL, tested 4/18/1991
[9] = dose 25 ng/mL, tested 4/22/1990
[10] = dose 250 ng/mL, tested 4/22/1990

CC[C@H](C)[C@H]1NC(=O)[C@@H](NC(=O)[C@@H](CC(C)C)N(C)C(=O)[C@@H]2CCCN2C(=O)[C@H](C)OC(=O)[C@H](CCC(N)=O)NC(=O)[C@@H]2CCC(=O)N2)[C@@H](C)OC(=O)[C@H](Cc2ccc(OC)cc2)N(C)C(=O)[C@@H]2CCCN2C(=O)[C@H](CC(C)C)NC(=O)[C@@H](C)C(=O)[C@H](C(C)C)OC(=O)C[C@@H]1O [Didemnin M (12), Didemnin M] ([pGlu]Q[Lac]P[dNMeL]T[X1]LP[NMeY](Me); ester 6-C)
VIV Protection [1]: -73
Cytotoxicity L1210 IC50 [2]: 0.4 ng/mL

CCCCCC(=O)N(C)[C@H](CC(C)C)C(=O)N[C@@H]1C(=O)N[C@H]([C@@H](C)CC)[C@@H](O)CC(=O)O[C@@H](C(C)C)C(=O)[C@H](C)C(=O)N[C@@H](CC(C)C)C(=O)N2CCC[C@H]2C(=O)N(C)[C@@H](Cc2ccc(OC)cc2)C(=O)O[C@@H]1C [N^a -Hexanoyl-, N-hexanoyl didemnin A] (Hexanoyl-[dNMeL]T[X1]LP[NMeY](Me); ester 2-C)
cytotoxicity (result in words) [3]: retained the cytotoxicity of didemnin B
Cytotoxicity percent L1210 inhibition ([3]; dose 5 ng/mL): 73%
Cytotoxicity percent L1210 inhibition ([3]; dose 12.5 ng/mL): 89%
Cytotoxicity percent L1210 inhibition ([3]; dose 25 ng/mL): 92%

CCCCCCCC(=O)N(C)[C@H](CC(C)C)C(=O)N[C@@H]1C(=O)N[C@H]([C@@H](C)CC)[C@@H](O)CC(=O)O[C@@H](C(C)C)C(=O)[C@H](C)C(=O)N[C@@H](CC(C)C)C(=O)N2CCC[C@H]2C(=O)N(C)[C@@H](Cc2ccc(OC)cc2)C(=O)O[C@@H]1C [N^a -Octanoyl-, N-octanoyl didemnin A] (Octanoyl-[dNMeL]T[X1]LP[NMeY](Me); ester 2-C)
cytotoxicity (result in words) [3]: retained the cytotoxicity of didemnin B
Cytotoxicity percent L1210 inhibition ([3]; dose 5 ng/mL): 89%
Cytotoxicity percent L1210 inhibition ([3]; dose 12.5 ng/mL): 93%
Cytotoxicity percent L1210 inhibition ([3]; dose 25 ng/mL): 94%

CCCCC(=O)N(C)[C@H](CC(C)C)C(=O)N[C@@H]1C(=O)N[C@H]([C@@H](C)CC)[C@@H](O)CC(=O)O[C@@H](C(C)C)C(=O)[C@H](C)C(=O)N[C@@H](CC(C)C)C(=O)N2CCC[C@H]2C(=O)N(C)[C@@H](Cc2ccc(OC)cc2)C(=O)O[C@@H]1C [N^a -Pentanoyl-, N-pentanoyl didemnin A] (Pentanoyl-[dNMeL]T[X1]LP[NMeY](Me); ester 2-C)
cytotoxicity (result in words) [3]: retained the cytotoxicity of didemnin B
Cytotoxicity percent L1210 inhibition ([3]; dose 5 ng/mL): 56%
Cytotoxicity percent L1210 inhibition ([3]; dose 12.5 ng/mL): 81%
Cytotoxicity percent L1210 inhibition ([3]; dose 25 ng/mL): 91%

CC[C@H](C)[C@H]1NC(=O)[C@@H](NC(=O)[C@@H](CC(C)C)N(C)C(=O)[C@@H]2CCCN2C(=O)C(=O)Cc2ccccc2)[C@@H](C)OC(=O)[C@H](Cc2ccc(OC)cc2)N(C)C(=O)[C@@H]2CCCN2C(=O)[C@H](CC(C)C)NC(=O)[C@@H](C)C(=O)[C@H](C(C)C)OC(=O)C[C@@H]1O [Phepyruv-Pro-DA, PhePyruv-Pro Didemnin A] (X5-P[dNMeL]T[X1]LP[NMeY](Me); ester 3-C)
% Protection [1]: I
IC50 [4]: 3.5 ng/mL (≈ 2.95 nM)
cytotoxicity compared with DDB [4]: only partially active

CCC(C)C1NC(=O)C(NC(=O)C(CC(C)C)N(C)C(=O)C2CCCN2C(=O)C(C)N2C(=O)c3ccccc3C2=O)C(C)OC(=O)C(Cc2ccc(OC)cc2)N(C)C(=O)C2CCCN2C(=O)C(CC(C)C)NC(=O)C(C)C(=O)C(C(C)C)OC(=O)CC1O (centres unmarked) [Phthalimidedidemnin B (82), Phthalimide didemnin B] (X8-P[NMeL]T[X9]LP[NMeY](Me); ester 3-C; configuration not given here)
Inhibition (%) [5, 7]: 98%
Inhibition (%) [5, 8]: 99%

CC[C@H](C)[C@H]1NC(=O)[C@@H](NC(=O)[C@@H](CC(C)C)N(C)C(=O)CN(C)C(=O)C(C)=O)[C@@H](C)OC(=O)[C@H](Cc2ccc(OC)cc2)N(C)C(=O)[C@@H]2CCCN2C(=O)[C@H](CC(C)C)NC(=O)[C@@H](C)C(=O)[C@H](C(C)C)OC(=O)C[C@@H]1O [Pyruv-Sar-DA, Pyruv-Sar Didemnin A] (Pyruvoyl-[Sar][dNMeL]T[X1]LP[NMeY](Me); ester 3-C)
% Protection [1]: I
IC50 [4]: 1 ng/mL (≈ 0.922 nM)
cytotoxicity [4]: completely inactive

CC[C@H](C)[C@H]1NC(=O)[C@@H](NC(=O)[C@@H](CC(C)C)N(C)C(=O)[C@@H]2CCCN2C(C)=O)[C@@H](C)OC(=O)[C@H](Cc2ccc(OC)cc2)N(C)C(=O)[C@@H]2CCCN2C(=O)[C@H](CC(C)C)NC(=O)[C@@H](C)C(=O)[C@H](C(C)C)OC(=O)C[C@@H]1O [[Acetyl^9]Didemnin B (103), [Acetyl^9]didemnin B] (Ac-P[dNMeL]T[X1]LP[NMeY](Me); ester 3-C)
VIV Protection [1]: -123
Inhibition of [3H]didemnin B binding (%) ([6]; 0.001 μg/mL): 3%
Inhibition of [3H]didemnin B binding (%) ([6]; 0.01 μg/mL): 2%
Inhibition of [3H]didemnin B binding (%) ([6]; 0.1 μg/mL): 67%
Inhibition of [3H]didemnin B binding (%) ([6]; 1 μg/mL): 85%
Cytotoxicity L1210 IC50 [2]: 0.2 ng/mL

CC[C@H](C)[C@H]1NC(=O)[C@@H](NC(=O)[C@@H](CC(C)C)NC)[C@@H](C)OC(=O)[C@H](CC2CCCCC2)N(C)C(=O)[C@@H]2CCCN2C(=O)[C@H](CC(C)C)NC(=O)[C@@H](C)C(=O)[C@H](C(C)C)OC(=O)C[C@@H]1O [[H6 -N-MePhe^5] didemnin A (117), [Hexahydro-N-MePhe^5]didemnin A] (H-[dNMeL]T[X1]LP[NMeCha]; ester 2-C)
Inhibition (%) [5, 7]: 25%
Inhibition (%) [5, 9]: 75%
Inhibition (%) [5, 8]: 94%
Inhibition (%) [5, 10]: 98%

CC[C@H](C)[C@H]1NC(=O)[C@@H](NC(=O)[C@@H](CC(C)C)N(C)C(=O)[C@@H]2CCCN2C(=O)[C@H](C)O)[C@@H](C)OC(=O)[C@H](CC2CCCCC2)N(C)C(=O)[C@@H]2CCCN2C(=O)[C@H](CC(C)C)NC(=O)[C@@H](C)C(=O)[C@H](C(C)C)OC(=O)C[C@@H]1O [[H6 -N-MePhe^5] didemnin B (118), [Hexahydro-N-MePhe^5]didemnin B]
Inhibition (%) [5, 7]: 99%
Inhibition (%) [5, 9]: 99%
Inhibition (%) [5, 8]: 99%
Inhibition (%) [5, 10]: 99%

CC[C@H](C)[C@H]1NC(=O)[C@@H](NC(=O)[C@@H](CC(C)C)NC)[C@@H](C)OC(=O)[C@H](CC2CCC(OC)CC2)N(C)C(=O)[C@@H]2CCCN2C(=O)[C@H](CC(C)C)NC(=O)[C@@H](C)C(=O)[C@H](C(C)C)OC(=O)C[C@@H]1O (some centres unmarked) [[H6 Me2 Tyr^5]didemnin A (115), [HexahydroMe2 Tyr^5]didemnin A]
Inhibition (%) [5, 9]: 17%
Inhibition (%) [5, 10]: 94%

CC[C@H](C)[C@H]1NC(=O)[C@@H](NC(=O)[C@@H](CC(C)C)N(C)C(=O)[C@@H]2CCCN2C(=O)[C@H](C)O)[C@@H](C)OC(=O)[C@H](CC2CCC(OC)CC2)N(C)C(=O)[C@@H]2CCCN2C(=O)[C@H](CC(C)C)NC(=O)[C@@H](C)C(=O)[C@H](C(C)C)OC(=O)C[C@@H]1O (some centres unmarked) [[H6 Me2 Tyr^5]didemnin B (116), [HexahydroMe2 Tyr^5]didemnin B]
Inhibition (%) [5, 7]: 99%
Inhibition (%) [5, 9]: 98%
Inhibition (%) [5, 8]: 99%
Inhibition (%) [5, 10]: 99%

CCCCCCCCCCCC(=O)N(C)[C@H](CC(C)C)C(=O)N[C@@H]1C(=O)N[C@H]([C@@H](C)CC)[C@@H](O)CC(=O)O[C@@H](C(C)C)C(=O)[C@H](C)C(=O)N[C@@H](CC(C)C)C(=O)N2CCC[C@H]2C(=O)N(C)[C@@H](Cc2ccc(OC)cc2)C(=O)O[C@@H]1C [lauroyl, N-lauroyl didemnin A] (Lauroyl-[dNMeL]T[X1]LP[NMeY](Me); ester 2-C)
cytotoxicity (result in words) [3]: inactive

CC[C@H](C)[C@H]1NC(=O)[C@@H](NC(=O)[C@@H](CC(C)C)N(C)C(=O)[C@@H]2CCCN2C(=O)[C@H](C)OC(=O)[C@@H]2CCC(=O)N2)[C@@H](C)OC(=O)[C@H](Cc2ccc(OC)cc2)N(C)C(=O)[C@@H]2CCCN2C(=O)[C@H](CC(C)C)NC(=O)[C@@H](C)C(=O)[C@H](C(C)C)OC(=O)C[C@@H]1O [pGlu-didemnin B (113), O-Pyroglutamyldidemnin B] ([pGlu][Lac]P[dNMeL]T[X1]LP[NMeY](Me); ester 5-C)
VIV Protection [1]: -65
Cytotoxicity L1210 IC50 [2]: 0.4 ng/mL

CCCCCCCCCCCCCCCCCC(=O)N(C)[C@H](CC(C)C)C(=O)N[C@@H]1C(=O)N[C@H]([C@@H](C)CC)[C@@H](O)CC(=O)O[C@@H](C(C)C)C(=O)[C@H](C)C(=O)N[C@@H](CC(C)C)C(=O)N2CCC[C@H]2C(=O)N(C)[C@@H](Cc2ccc(OC)cc2)C(=O)O[C@@H]1C [stearoyl, N-stearoyl didemnin A] (Stearoyl-[dNMeL]T[X1]LP[NMeY](Me); ester 2-C)
cytotoxicity (result in words) [3]: inactive

Didemnin D [Didemnin D (19)]
VIV Protection [1]: -53
Cytotoxicity L1210 IC50 [2]: 0.5 ng/mL

Didemnin E [Didemnin E (20)]
VIV Protection [1]: -73
Cytotoxicity L1210 IC50 [2]: 0.5 ng/mL

Didemnin X [Didemnin X (10)]
VIV Protection [1]: -25
Cytotoxicity L1210 IC50 [2]: 2 ng/mL

Didemnin Y [Didemnin Y (11)]
VIV Protection [1]: -33
Cytotoxicity L1210 IC50 [2]: 2 ng/mL

Isodidemnin A1 [Isodidemnin A1 (1a)]
VIV Protection [1]: < 0
Cytotoxicity L1210 IC50 [2]: 10 ng/mL

N-(CH3 ONsu)didemnin A [N-(CH3 ONsu)-didemnin A (111)]
VIV Protection [1]: -43

N-palmitoyl didemnin A
cytotoxicity (result in words) [3]: inactive

Nordidemnin A [Nordidemnin A (21)]
VIV Protection ([1]; Table 9, 0.1 μg/mL): < 0%
Cytotoxicity L1210 IC50 [2]: 30 ng/mL

[AnhydroIst^1 ]Phthalimide didemnin B
Inhibition (%) [5, 7]: 81%
Inhibition (%) [5, 8]: 99%
